# According to patent US20260274830A1, “DEUTERIUM-SUBSTITUTED PYRIDAZINE BENZOTHIOPHENE COMPOUND AND USE THEREOF” (MEDSHINE DISCOVERY INC., priority 2022, published 2026):
# Columns and labels:
# [1] = Pharmacokinetic evaluation in SD rats in vivo; set-up: species or system SD rat
# Procedure: (§1) The pharmacokinetic characteristics of the compound in rodents after intravenous injection and oral administration were tested according to the standard protocol. In the experiment, the candidate compound was formulated into clear solutions, and a single intravenous injection and oral administration were given to SD rats. The vehicle for intravenous injection and oral administration was a mixed vehicle composed of 5% dimethyl sulfoxide and 95% solutol with a content of 5%. Four male SD rats were used in this project. Two SD rats were administered via intravenous injections, and plasma samples were collected at 0.083, 0.25, 0.5, 1, 2, 4, 8, and 24 h post-administration. The other two SD rats were administered orally by gavage, and plasma samples were collected at 0.25, 0.5, 1, 2, 4, 8, and 24 h post-administration. Plasma concentrations were quantitatively analyzed by LC-MS/MS analysis method, and pharmacokinetic parameters such as peak concentration (Cmax), clearance (CL), half-life (T1/2), volume of distribution at steady state (Vdss), area under the drug-time curve (AUC0-last), and bioavailability (F) were calculated.
# as §1, with “injections at a dose of 2 mg/kg,” for “injections,”, “gavage at a dose of 10 mg/kg,” for “gavage,”
# [2] = Pharmacokinetic evaluation in beagle dogs in vivo; set-up: species or system beagle dog
# Procedure: as §1, with “beagle dogs” for “rodents”, “after” for “after intravenous injection and”, “beagle dogs.” for “SD rats.”, “beagle dogs” for “SD rats”, “injections at a dose of 1 mg/kg,” for “injections,”, “gavage at a dose of 2 mg/kg,” for “gavage,”
# [3] = target: T1, NLRP3 (Rattus norvegicus, UniProt D4A523); assay: LPS-stimulated IL-1β release assay in rat primary microglia; type: cell-based; conditions: LPS 50 ng/ml 3 h, compound 0.5 h, Nigericin 0.3 μg/mL 1 h, IL-1β ELISA
# T1 construct: Newborn SD rats were used to obtain mixed glial cells from the cerebral cortex; endogenous in cells; host or cells: primary microglia from the cerebral cortex of newborn SD rats, LPS-primed, nigericin-stimulated
# T1 sequence (D4A523 whole entry): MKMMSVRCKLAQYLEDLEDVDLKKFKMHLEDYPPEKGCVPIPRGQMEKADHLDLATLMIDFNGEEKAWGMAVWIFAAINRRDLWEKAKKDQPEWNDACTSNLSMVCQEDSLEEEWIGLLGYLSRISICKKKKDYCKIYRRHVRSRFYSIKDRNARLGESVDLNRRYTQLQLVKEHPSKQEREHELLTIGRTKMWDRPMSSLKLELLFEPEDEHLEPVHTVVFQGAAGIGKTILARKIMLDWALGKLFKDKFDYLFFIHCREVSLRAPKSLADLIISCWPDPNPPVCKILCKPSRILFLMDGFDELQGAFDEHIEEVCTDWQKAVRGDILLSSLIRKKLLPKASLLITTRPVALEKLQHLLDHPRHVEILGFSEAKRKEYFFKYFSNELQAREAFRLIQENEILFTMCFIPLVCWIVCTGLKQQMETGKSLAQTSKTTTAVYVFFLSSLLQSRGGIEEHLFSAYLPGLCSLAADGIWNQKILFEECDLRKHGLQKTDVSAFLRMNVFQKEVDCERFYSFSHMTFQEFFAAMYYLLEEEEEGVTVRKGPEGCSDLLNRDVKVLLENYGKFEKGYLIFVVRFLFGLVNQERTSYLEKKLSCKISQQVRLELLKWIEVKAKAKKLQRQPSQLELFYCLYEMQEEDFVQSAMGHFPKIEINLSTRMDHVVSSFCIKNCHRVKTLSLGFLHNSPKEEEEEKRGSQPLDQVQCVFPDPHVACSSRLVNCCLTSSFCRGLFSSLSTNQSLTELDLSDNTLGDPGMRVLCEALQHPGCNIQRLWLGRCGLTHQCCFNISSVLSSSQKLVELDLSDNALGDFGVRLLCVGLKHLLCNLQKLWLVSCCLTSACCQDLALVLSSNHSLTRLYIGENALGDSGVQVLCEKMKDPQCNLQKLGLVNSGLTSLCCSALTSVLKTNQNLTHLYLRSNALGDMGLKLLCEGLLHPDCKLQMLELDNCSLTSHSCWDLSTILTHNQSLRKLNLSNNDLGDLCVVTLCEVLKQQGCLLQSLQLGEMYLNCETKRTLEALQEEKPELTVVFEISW
# Procedure: This experiment utilized rat primary microglia to study the inhibitory activity of NLRP3 inhibitors on the secretion of IL-1β in rat primary microglia.
# Newborn SD rats were used to obtain mixed glial cells from the cerebral cortex through digestion and separation, and the cells were seeded into culture flasks for cultivation. The culture medium was replaced every 3-4 days, and the cells were cultured for approximately 10 days until they reached full confluence. The microglial cells were then collected through shaking at 37° C. and centrifugation, and were seeded into a 96-well cell culture plate for overnight cultivation. The cells were then transferred to serum-free medium and treated with 50 ng/ml LPS for 3 hours. Different concentrations of the compounds were added for 0.5 hours, followed by the addition of 0.3 μg/mL Nigericin for 1 hour. The supernatant was collected and either stored at −80° C. or directly detected for IL-1β release using an ELISA kit, following the manufacturer's instructions. Data processing involved using 10 μM of the positive compound group as the low value (L) and the DMSO group as the high value (H). The inhibition rate of the compound was calculated using the formula: Inhibition %=(Ave_H-Sample)/(Ave_H−Ave_L)*100, and the IC50 of the compound was calculated using the nonlinear regression equation: Y=Bottom+(Top−Bottom)/(1+10∧((LogIC50−X)*HillSlope)).
# [4] = IV and PO, oral bioavailability, oral exposure, half-life, clearance
structure (smiles),measurement,setting,value
[2H]C([2H])([2H])N1CCC[C@@H](Nc2cc(C)c(-c3ccc4sccc4c3O)nn2)C1 [Compound II],pharmacokinetic properties in SD rats in vivo (in words),[1]; [4],good pharmacokinetic properties
same,AUC(0-t),"[1]; male, rat, plasma, IV 2 mg/kg, read-out: Area under drug-time curve AUC0-last IV",1.87 µM·h
same,clearance,"[1]; male, rat, plasma, IV 2 mg/kg, read-out: Clearance CL",47.4 mL/min/kg
same,half-life,"[1]; male, rat, plasma, IV 2 mg/kg, read-out: Half-life T1/2 (IV) (converted)",1.82 h
same,Vd,"[1]; male, rat, plasma, IV 2 mg/kg, read-out: Volume of distribution at steady state Vdss",6.99 L/kg
same,bioavailability,"[1]; male, rat, plasma, PO 10 mg/kg vs IV 2 mg/kg, read-out: Bioavailability F",27.1%
same,AUC(0-t),"[1]; male, rat, plasma, PO 10 mg/kg, read-out: Area under drug-time curve AUC0-last PO",2.35 µM·h
same,Cmax,"[1]; male, rat, plasma, oral gavage 10 mg/kg (route not given), read-out: Peak concentration Cmax",593 nM
same,pharmacokinetic properties in beagle dogs in vivo (in words),[2]; [4],good pharmacokinetic properties
same,AUC(0-t),"[2]; male, dog, plasma, IV 1 mg/kg, read-out: Area under drug-time curve AUC0-last IV",1.92 µM·h
same,clearance,"[2]; male, dog, plasma, IV 1 mg/kg, read-out: Clearance CL",25.7 mL/min/kg
same,half-life,"[2]; male, dog, plasma, IV 1 mg/kg, read-out: Half-life T1/2 (IV) (converted)",3.53 h
same,Vd,"[2]; male, dog, plasma, IV 1 mg/kg, read-out: Volume of distribution at steady state Vdss",6.9 L/kg
same,bioavailability,"[2]; male, dog, plasma, PO 2 mg/kg vs IV 1 mg/kg, read-out: Bioavailability F",80.9%
same,AUC(0-t),"[2]; male, dog, plasma, PO 2 mg/kg, read-out: Area under drug-time curve AUC0-last PO",3.11 µM·h
same,Cmax,"[2]; male, dog, plasma, oral gavage 2 mg/kg (route not given), read-out: Peak concentration Cmax",504 nM
same,IC50,[3],35.8 nM
